Experimental data as given in ChEMBL document CHEMBL5046296 (J Med Chem, 2022).

Columns and labels:
[1] = Protein binding in mouse plasma assessed as unbound fraction at 10 uM measured after 5 hrs by LC-MS/MS analysis; assay type: ADME, cell-free
[2] = Displacement of 3H-LP-927443 from AAK1 in mouse brain membrane homogenate assessed as inhibition constant at 1 uM incubated for 1 hr by liquid scintillation counter analysis; assay type: cell membranes
[3] = Permeability of compound at pH 7.4 measured after 4 hrs by PAMPA assay; assay type: ADME; details: read-out: permeability
[4] = Permeability across apical to basolateral side in human Caco-2 cells at 3 uM measured after 2 hrs by LC-MS/MS analysis; assay type: ADME, cell-based; details: read-out: permeability
[5] = Metabolic stability in rat liver microsomes assessed as CYP450-mediated metabolism by measuring parent compound remaining at 0.5 uM incubated for 10 mins in presence of NADPH by LC-MS/MS analysis; assay type: ADME; details: read-out: Stability
[6] = molecular target: T1, AP2-associated protein kinase 1 (Homo sapiens, UniProt Q2M2I8); test: Inhibition of GST-Xa tagged human AAK1 (30 to 330 residues) expresssed in bacteria using (5-FAM)-Aha-KEEQSQITSQVTGQIGWR-NH2 peptide as substrate incubated for 3 hrs in presence of ATP by electrophoretic analysis
T1 sequence (Q2M2I8 whole entry, the tested form may be a part): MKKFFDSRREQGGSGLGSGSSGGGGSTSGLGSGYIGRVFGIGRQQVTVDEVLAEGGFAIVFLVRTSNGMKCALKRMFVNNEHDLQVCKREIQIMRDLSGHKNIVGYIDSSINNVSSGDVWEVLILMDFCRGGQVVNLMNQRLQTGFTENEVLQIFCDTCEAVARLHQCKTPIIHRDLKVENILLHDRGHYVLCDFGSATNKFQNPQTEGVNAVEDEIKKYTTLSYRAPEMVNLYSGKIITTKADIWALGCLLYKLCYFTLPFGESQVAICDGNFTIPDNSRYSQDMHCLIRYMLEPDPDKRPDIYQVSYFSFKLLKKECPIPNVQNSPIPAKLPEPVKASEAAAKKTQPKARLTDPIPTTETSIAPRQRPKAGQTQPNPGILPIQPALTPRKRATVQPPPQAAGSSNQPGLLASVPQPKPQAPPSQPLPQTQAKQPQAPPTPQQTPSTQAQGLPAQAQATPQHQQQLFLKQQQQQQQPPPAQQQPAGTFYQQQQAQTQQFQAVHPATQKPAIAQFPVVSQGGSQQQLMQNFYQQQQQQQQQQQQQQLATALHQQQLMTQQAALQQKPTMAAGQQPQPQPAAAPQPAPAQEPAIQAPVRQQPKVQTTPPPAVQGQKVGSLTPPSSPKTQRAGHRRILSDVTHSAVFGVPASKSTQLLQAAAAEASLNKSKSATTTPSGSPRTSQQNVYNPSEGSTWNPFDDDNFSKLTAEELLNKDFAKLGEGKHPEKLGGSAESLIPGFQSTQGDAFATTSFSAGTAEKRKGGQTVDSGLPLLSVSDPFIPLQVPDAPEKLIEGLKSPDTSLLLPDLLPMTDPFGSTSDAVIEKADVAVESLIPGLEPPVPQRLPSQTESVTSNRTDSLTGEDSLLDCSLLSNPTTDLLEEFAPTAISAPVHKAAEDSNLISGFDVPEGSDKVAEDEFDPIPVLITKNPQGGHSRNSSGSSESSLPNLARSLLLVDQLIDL

[7] = Protein binding in human plasma assessed as unbound fraction at 10 uM measured after 5 hrs by LC-MS/MS analysis; assay type: ADME, cell-free
[8] = Protein binding in rat plasma assessed as unbound fraction at 10 uM measured after 5 hrs by LC-MS/MS analysis; assay type: ADME, cell-free
Aorta = test: Cardiotoxicity in rat aortic ring assessed as relaxation of phenylephrine induced aortic ring contraction at 10 uM incubated for 1 hr; assay type: toxicity, tissue-based; set-up: scale not given: the % may be the effect or the level left
Cytochrome P450 = Cytochrome P450 (Homo sapiens, UniProt P04798+P05177+P05181+P08684+P10632+P10635+P11509+P11712+P13584+P20813+P20815+P20853+P24462+P24903+P33260+P33261+P51589+P78329+P98187+Q02928+Q08477+Q16678+Q16696+Q5TCH4+Q6VVX0+Q7Z449+Q8TAV3+Q96SQ9+Q9HB55); test: Metabolic stability in human liver microsomes assessed as CYP450-mediated metabolism by measuring parent compound remaining at 0.5 uM incubated for 10 mins in presence of NADPH by LC-MS/MS analysis; assay type: ADME; details: read-out: Stability
[9] = Permeability across basolateral to apical side in human Caco-2 cells at 3 uM measured after 2 hrs by LC-MS/MS analysis; assay type: ADME, cell-based; details: read-out: permeability
Cytochrome P450 3A4 = Cytochrome P450 3A4 (Homo sapiens, UniProt P08684); test: Inhibition of CYP3A4 (unknown origin) using BFC as substrate; assay type: ADME
Chain of Cytochrome P450 3A4 (P08684 whole entry): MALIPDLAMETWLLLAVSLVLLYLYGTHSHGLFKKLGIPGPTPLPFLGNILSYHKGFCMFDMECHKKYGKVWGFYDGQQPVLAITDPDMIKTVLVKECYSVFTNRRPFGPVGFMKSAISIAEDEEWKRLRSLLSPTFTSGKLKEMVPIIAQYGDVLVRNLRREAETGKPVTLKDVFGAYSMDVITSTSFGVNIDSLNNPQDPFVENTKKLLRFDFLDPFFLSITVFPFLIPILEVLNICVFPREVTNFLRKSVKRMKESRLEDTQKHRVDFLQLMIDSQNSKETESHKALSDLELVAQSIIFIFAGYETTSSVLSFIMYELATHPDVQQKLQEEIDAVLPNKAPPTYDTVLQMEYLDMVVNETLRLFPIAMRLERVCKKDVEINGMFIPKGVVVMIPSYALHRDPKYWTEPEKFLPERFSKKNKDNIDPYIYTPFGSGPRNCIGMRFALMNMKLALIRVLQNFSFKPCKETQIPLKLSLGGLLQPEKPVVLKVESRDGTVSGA

[10] = molecular target: T1, AP2-associated protein kinase 1; test: Inhibition of […] in HEK293F cells assessed as reduction in phospho mu2 formation incubated for 3 hrs by Western blot analysis; assay type: cell-based
[11] = Metabolic stability in mouse liver microsomes assessed as CYP450-mediated metabolism by measuring parent compound remaining at 0.5 uM incubated for 10 mins in presence of NADPH by LC-MS/MS analysis; assay type: ADME; details: read-out: Stability
[12] = Permeability of compound at pH 5.5 measured after 4 hrs by PAMPA assay; assay type: ADME; details: read-out: permeability
[13] = Drug concentration in streptozotocin induced diabetic peripheral neuropathic mechanical allodynia in overnight fasted Sprague-Dawley rat spinal cord at 1 mg/kg, po measured after 5.5 hrs; assay type: ADME, organism-based; details: read-out: Ct
[14] = Ratio of drug concentration in brain to plasma in streptozotocin induced diabetic peripheral neuropathic mechanical allodynia in overnight fasted Sprague-Dawley rat at 1 mg/kg, po measured after 5.5 hrs; assay type: ADME, organism-based
Rattus norvegicus = test: Analgesic activity in streptozotocin induced diabetic peripheral neuropathic mechanical allodynia in overnight fasted Sprague-Dawley rat model assessed as reduction in pain response at 1 mg/kg, po measured after 5.5 hrs post treatment; assay type: functional; set-up: scale not given: the % may be the effect or the level left
[15] = molecular target: MAP kinase-interacting serine/threonine-protein kinase 2 (Homo sapiens, UniProt Q9HBH9); test: Inhibition of MNK2 (unknown origin)
Chain of MAP kinase-interacting serine/threonine-protein kinase 2 (Q9HBH9 whole entry): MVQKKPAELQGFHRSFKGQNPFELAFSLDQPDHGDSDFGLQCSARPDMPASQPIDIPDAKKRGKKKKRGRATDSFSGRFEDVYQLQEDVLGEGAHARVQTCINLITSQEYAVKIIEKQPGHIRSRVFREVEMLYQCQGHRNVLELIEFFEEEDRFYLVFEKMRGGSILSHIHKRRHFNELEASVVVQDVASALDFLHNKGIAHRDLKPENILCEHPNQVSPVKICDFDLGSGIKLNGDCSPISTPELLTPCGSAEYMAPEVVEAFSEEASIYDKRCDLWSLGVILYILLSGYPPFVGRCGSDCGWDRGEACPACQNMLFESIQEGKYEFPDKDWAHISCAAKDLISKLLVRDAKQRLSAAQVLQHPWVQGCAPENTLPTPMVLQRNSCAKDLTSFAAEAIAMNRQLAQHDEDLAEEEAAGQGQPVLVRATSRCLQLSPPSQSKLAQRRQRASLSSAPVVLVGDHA

[16] = Drug concentration in brain of overnight fasted Sprague-Dawley rat model of streptozotocin induced diabetic peripheral neuropathic mechanical allodynia at 1 mg/kg, po measured after 5.5 hrs; assay type: ADME, organism-based; details: read-out: Ct
[17] = molecular target: Glycogen synthase kinase-3 alpha (Homo sapiens, UniProt P49840); test: Inhibition of GSK3A (unknown origin)
Chain of Glycogen synthase kinase-3 alpha (P49840 whole entry): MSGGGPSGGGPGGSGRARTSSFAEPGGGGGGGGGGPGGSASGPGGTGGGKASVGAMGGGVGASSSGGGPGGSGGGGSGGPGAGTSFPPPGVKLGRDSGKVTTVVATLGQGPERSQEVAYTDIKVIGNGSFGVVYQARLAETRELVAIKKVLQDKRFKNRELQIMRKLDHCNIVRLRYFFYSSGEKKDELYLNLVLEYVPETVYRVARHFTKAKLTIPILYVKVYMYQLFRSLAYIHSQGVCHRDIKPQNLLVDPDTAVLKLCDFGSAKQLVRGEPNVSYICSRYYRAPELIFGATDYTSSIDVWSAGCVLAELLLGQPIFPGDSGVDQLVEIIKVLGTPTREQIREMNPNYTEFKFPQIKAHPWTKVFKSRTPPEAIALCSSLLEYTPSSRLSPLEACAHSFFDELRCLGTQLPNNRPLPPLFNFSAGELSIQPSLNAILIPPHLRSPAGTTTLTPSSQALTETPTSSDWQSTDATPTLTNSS

[18] = Cmax in plasma of overnight fasted Sprague-Dawley rat model of streptozotocin induced diabetic peripheral neuropathic mechanical allodynia at 1 mg/kg, po measured after 5.5 hrs; assay type: ADME, organism-based; set-up: route oral, time 5.5 hrs, dose 1 mg/kg
[19] = molecular target: cGMP-dependent protein kinase 2 (Homo sapiens, UniProt Q13237); test: Inhibition of PKG2 (unknown origin)
Chain of cGMP-dependent protein kinase 2 (Q13237 whole entry): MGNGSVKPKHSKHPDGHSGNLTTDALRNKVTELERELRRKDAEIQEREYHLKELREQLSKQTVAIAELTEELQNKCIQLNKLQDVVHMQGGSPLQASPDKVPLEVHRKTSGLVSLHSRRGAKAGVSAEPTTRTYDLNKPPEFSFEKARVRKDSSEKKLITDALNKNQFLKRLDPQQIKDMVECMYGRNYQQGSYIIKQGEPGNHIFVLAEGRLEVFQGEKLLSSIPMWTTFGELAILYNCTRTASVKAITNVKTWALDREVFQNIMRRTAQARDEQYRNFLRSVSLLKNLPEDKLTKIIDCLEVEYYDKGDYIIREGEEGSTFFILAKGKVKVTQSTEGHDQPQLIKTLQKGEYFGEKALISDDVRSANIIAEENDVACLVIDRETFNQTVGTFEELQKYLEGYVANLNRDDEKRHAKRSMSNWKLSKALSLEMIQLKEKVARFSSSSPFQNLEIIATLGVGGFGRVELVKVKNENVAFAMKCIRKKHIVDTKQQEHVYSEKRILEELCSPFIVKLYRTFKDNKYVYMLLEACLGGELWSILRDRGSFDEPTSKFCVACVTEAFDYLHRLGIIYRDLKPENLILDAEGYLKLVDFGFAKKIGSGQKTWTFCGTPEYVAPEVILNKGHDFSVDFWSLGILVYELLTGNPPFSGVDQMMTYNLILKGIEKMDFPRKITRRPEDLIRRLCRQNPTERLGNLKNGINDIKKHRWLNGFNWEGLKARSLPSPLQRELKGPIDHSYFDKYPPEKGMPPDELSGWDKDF

SMILES | Ki [2] [nM] | remaining at 10 min, 0.5 µM [5] [%] | IC50 [6] [nM] | Activity (Aorta) [%] | remaining at 10 min, 0.5 µM (Cytochrome P450) [%] | IC50 (Cytochrome P450 3A4) [nM] | IC50 [10] [nM] | remaining at 10 min, 0.5 µM [11] [%] | other results
Cc1cc(-c2ccc(OC[C@@](C)(N)CC(C)C)c(C(F)(F)F)c2)ccn1 | 0.22 | 86 | 0.9 | 69 | 89 | > 20000 | 25 | 66 | fraction unbound at 5 h, 10 µM [1]: 0.017; Papp at 4 h [3]: 30.5 ×10⁻⁶ cm/s; Papp A→B at 2 h, 3 µM [4]: 7.1 ×10⁻⁶ cm/s; fraction unbound at 5 h, 10 µM [7]: 0.02; fraction unbound at 5 h, 10 µM [8]: 0.026; Papp B→A at 2 h, 3 µM [9]: 5.9 ×10⁻⁶ cm/s; Papp at 4 h [12]: 36 ×10⁻⁶ cm/s
CC(C)C[C@](C)(N)COc1ccc(-c2ccncc2)cc1C(F)(F)F | 0.17 | – | 0.6 | – | – | 630 | 29 | – | –
CC(C)C[C@](C)(N)COc1ncc(-c2ccnc(C(F)F)c2)cc1C#N | – | – | – | 50 | – | – | – | – | –
Cc1cc(-c2cnc(OC[C@@](C)(N)CC(C)C)c(C#N)c2)ccn1 | – | – | – | 28 | – | – | – | – | –
CC(C)C[C@H](N)COc1ccc(-c2ccncc2)cc1 | – | – | – | – | – | 8700 | – | – | –
CC(C)C[C@H](N)COc1ccc(-c2ccnc(C(F)(F)F)c2)cc1C#N | – | – | – | – | – | 1300 | – | – | –
CC(C)C[C@](C)(N)COc1ncc(-c2ccnc(Cl)c2)cc1C(F)F | – | 88 | 3.1 | – | 89 | – | 9.1 | 76 | –
Cc1cc(-c2cnc(OC[C@@](C)(N)CC(C)C)c(C(F)F)c2)ccn1 | – | 65 | 1.9 | – | 43 | – | – | 43 | –
CC(C)C[C@](C)(N)COc1ccc(-c2ccnc(C(F)F)c2)cc1C(F)(F)F | 0.07 | 92 | 0.6 | – | 94 | 18000 | 7.8 | 98 | fraction unbound at 5 h, 10 µM [1]: 0.002; concentration at 5.5 h [13]: 510 nM; Papp at 4 h [3]: 55 ×10⁻⁶ cm/s; Papp A→B at 2 h, 3 µM [4]: 3.3 ×10⁻⁶ cm/s; Kp at 5.5 h [14]: 11; fraction unbound at 5 h, 10 µM [7]: 0.008; fraction unbound at 5 h, 10 µM [8]: 0.004; Activity (Rattus norvegicus): 30%; IC50 [15]: 380 nM; concentration at 5.5 h [16]: 880 nM; IC50 [17]: 1700 nM; Papp B→A at 2 h, 3 µM [9]: 1.7 ×10⁻⁶ cm/s; Cmax [18]: 80 nM; IC50 [19]: 380 nM; Papp at 4 h [12]: 33.9 ×10⁻⁶ cm/s
CC(C)C[C@](C)(N)COc1ccc(-c2ccnc(C(F)F)c2)nc1Cl | – | – | – | 64 | – | – | – | – | –
CC(C)C[C@](C)(N)COc1ccc(-c2ccnc(C(F)F)c2)cc1C#N | 0.25 | 71 | 0.6 | 100 | 85 | > 20000 | 6.4 | 97 | fraction unbound at 5 h, 10 µM [1]: 0.079; Papp at 4 h [3]: 68.7 ×10⁻⁶ cm/s; Papp A→B at 2 h, 3 µM [4]: 22.2 ×10⁻⁶ cm/s; fraction unbound at 5 h, 10 µM [7]: 0.14; fraction unbound at 5 h, 10 µM [8]: 0.14; Papp B→A at 2 h, 3 µM [9]: 17.7 ×10⁻⁶ cm/s; Papp at 4 h [12]: 68.1 ×10⁻⁶ cm/s
Cc1cc(-c2ccc(OC[C@@](C)(N)CC(C)C)c(C(F)F)n2)ccn1 | 1.1 | 82 | 2.9 | 26 | 81 | – | 11 | 71 | –
Cc1cc(-c2ccc(OC[C@@H](N)CC(C)C)c(C#N)c2)ccn1 | 0.71 | – | 0.8 | – | – | 2400 | 89 | – | –
Cc1cc(-c2ccc(OC[C@@](C)(N)CC(C)C)c(C#N)c2)ccn1 | – | – | – | – | – | > 20000 | – | – | –
CC(C)C[C@](C)(N)COc1ccc(-c2ccnc(Cl)c2)nc1C(F)F | – | 87 | 3.9 | 59 | 97 | – | – | 85 | –
CC(C)C[C@](C)(N)COc1ccc(-c2ccnc(F)c2)cc1C(F)(F)F | – | – | – | – | – | > 20000 | – | – | –
Cc1cc(-c2ccc(OC[C@@](C)(N)CC(C)C)c(C)n2)ccn1 | 7.2 | 83 | 36 | 1 | 95 | – | – | 78 | –
Cc1cc(-c2ccc(OC[C@@](C)(N)CC(C)C)c(C3CC3)c2)ccn1 | – | – | – | – | – | > 20000 | – | – | –
COc1cc(-c2ccc(OC[C@@H](N)CC(C)C)c(C#N)c2)ccn1 | – | – | – | – | – | 540 | – | – | –
Cc1cc(-c2ccc(OC[C@@](C)(N)CC(C)C)c(C(F)F)c2)ccn1 | 0.08 | 81 | 0.4 | 57 | 74 | > 20000 | 0.8 | 69 | fraction unbound at 5 h, 10 µM [1]: 0.02; Papp at 4 h [3]: 31.9 ×10⁻⁶ cm/s; Papp A→B at 2 h, 3 µM [4]: 9.5 ×10⁻⁶ cm/s; fraction unbound at 5 h, 10 µM [7]: 0.037; fraction unbound at 5 h, 10 µM [8]: 0.031; Papp B→A at 2 h, 3 µM [9]: 6 ×10⁻⁶ cm/s; Papp at 4 h [12]: 69.7 ×10⁻⁶ cm/s
CC(C)C[C@](C)(N)COc1ccc(-c2ccnc(C(F)F)c2)cc1C1CC1 | – | – | – | – | – | > 20000 | – | – | Papp at 4 h [12]: 78.4 ×10⁻⁶ cm/s
